Values joined by “and” are separate entries in the source; they are usually repeats but may differ in a detail not shown here. Equal entries are not always repeated.
Key:
[1] = system: MCF-7/WT; assay: MTT cell viability assay, MCF-7/WT; type: cell-based; details: Homo sapiens, MCF7, 72 h, mean ± SD
Experimental: (§1) Twelve compounds (2a-e, 3a-d and 4a-c) at a concentration range of 50–5000 μM were tested for their antiproliferative potential against four human cancer cell lines (A375—melanotic melanoma, C32—amelanotic melanoma, DU145—prostate cancer androgen-independent, MCF-7/WT—breast adenocarcinoma) and two normal cell lines: Chinese Hamster Ovary (CHO-K1) and immortalized human keratinocytes from histologically normal skin (HaCaT).
(§2) To determine the antiproliferative activity of newly synthesized compounds, the following cell lines were used: human melanotic melanoma cell line (A375), human amelanotic melanoma cell line (C32), human breast adenocarcinoma cell line (MCF-7/WT), human prostate cancer androgen-independent (DU145) and two normal cell lines: hamster ovarian (CHO-K1) and immortalized human keratinocytes from histologically normal skin (HaCaT). The cells were obtained from the cell line bank of the Department of Molecular and Cellular Biology, Wroclaw Medical University. A375, C32, MCF-7/WT, DU145 and HaCaT cells were grown in a monolayer cultured in Dulbecco’s Modified Eagle’s Medium (DMEM, Sigma-Aldrich, Poznań, Poland), supplemented with 10% of fetal bovine serum (FBS, Gibco, Paisley, UK) and 1% of antibiotics (penicillin/streptomycin, Sigma-Aldrich) and CHO-K1 were grown in HAM’s F-12 medium (Sigma-Aldrich), supplemented with 10% fetal bovine serum (FBS, Gibco) and 1% of antibiotics (penicillin/streptomycin, Sigma-Aldrich). Cell lines were cultured in the polystyrene flasks 25 or 75 cm^2 (Thermo Fisher Scientific, Waltham, MA, USA), which were stored in 37 °C and 5% CO2 in a humidified 95% atmosphere (SteriCult, Thermo Scientific, Alab). The cell medium was exchanged twice a week. The exponentially growing cells were used throughout the experiments. The cells were rinsed with phosphate-buffered saline (PBS, Sigma-Aldrich) and trypsinized by Trypsin-EDTA 0.25% solution (Sigma-Aldrich).
(§3) The influence of the compounds was performed in a monolayer culture on cancer and normal cells. Compounds were initially dissolved in DMSO; further dilutions of the compound were performed in Dulbecco’s Modified Eagle’s Medium supplemented with 10% FBS. Compounds were tested in a 50–5000 µM concentration range. In the in vitro experiments, the concentrations of DMSO in the final solution of the compounds were used 0.05%; 0.1%; 0.5%; 1%, respectively.
(§4) Cell viability was determined using the MTT colorimetric assay. All cell lines were seeded into 96-well plates to a density of 3 × 10^4 cells/well. After 24 h, the culture supernatants were removed and appropriate dilutions of compounds in the culture medium (200 µL/well) were added to the cells’ monolayer cultures and incubated for an additional 72 h. After 72 h of exposition to the compounds and the removal of the culture medium, cell viability was determined by reducing the yellow dye 3-(4,5-dimethyl-2-thiazol)-2,5-diphenyl-2H-tetrazolium bromide (MTT assay, Sigma Saint Louis, MO, USA; In Vitro Toxicology Assay) to a blue formazan product. The absorbance of the resulting solutions in three duplicate experiments was measured at the wavelength of 560 nm in a microplate reader (EnSpire, Perkin Elmer, Kraków, Poland). MTT assay is a colorimetric method that estimates the rate of metabolism in viable cells. Absorbance is directly proportional to the number of viable cells. All the experiments were performed three times and the mean absorbance values were calculated. The methodology for the evaluation of the growth of human cancer and normal cells was described previously. The cell viability in each group was expressed as a percentage of control (untreated) cells.

[2] = system: CHO-K1; assay: MTT cell viability assay, CHO-K1; type: cell-based, Chinese Hamster; details: Cricetulus griseus; CHO-K1 normal cells, MTT, 72 h, mean ± SD
Experimental: as §1, §2, §3, §4

[3] = MTT cell viability assay, HaCaT; type: cell-based, human; details: HaCaT keratinocytes (normal cell line), HaCaT human keratinocytes, 50 µM
Experimental: as §1, §2, §3, §4

[4] = system: HaCaT; assay: MTT cell viability assay, HaCaT; type: cell-based, human; details: Homo sapiens; HaCaT normal cells, MTT, 72 h, mean ± SD
Experimental: as §1, §2, §3, §4

[5] = system: RPMI-8226; assay: NCI-60 screen, Leukemia RPMI-8226; type: cell-based, human
[6] = system: NCI-H23; assay: NCI-60 screen, Non-Small Cell Lung Cancer NCI-H23; type: cell-based, human
[7] = system: NCI-H322M; assay: NCI-60 screen, Non-Small Cell Lung Cancer NCI-H322M; type: cell-based, human
[8] = system: NCI-H522; assay: NCI-60 screen, Non-Small Cell Lung Cancer NCI-H522; type: cell-based, human
[9] = system: COLO-205; assay: NCI-60 screen, Colon Cancer COLO-205; type: cell-based, human
[10] = system: HCC-2998; assay: NCI-60 screen, Colon Cancer HCC-2998; type: cell-based, human
[11] = system: HT29; assay: NCI-60 screen, Colon Cancer HT29; type: cell-based, human
[12] = system: SW620; assay: NCI-60 screen, Colon Cancer SW620; type: cell-based, human
[13] = system: SF-295; assay: NCI-60 screen, CNS Cancer SF-295; type: cell-based, human; details: SF-295, five doses 10^−4–10^−8 M
[14] = system: SNB-75; assay: NCI-60 screen, CNS Cancer SNB-75; type: cell-based, human; details: SNB-75, five doses 10^−4–10^−8 M
[15] = system: OVCAR-3; assay: NCI-60 screen, Ovarian Cancer OVCAR-3; type: cell-based, human
[16] = system: OVCAR-8; assay: NCI-60 screen, Ovarian Cancer OVCAR-8; type: cell-based, human
[17] = system: NCI/ADR-RES; assay: NCI-60 screen, Ovarian Cancer NCI/ADR-RES; type: cell-based, human
[18] = system: RXF 393; assay: NCI-60 screen, Renal Cancer RXF 393; type: cell-based, human
[19] = system: HS 578T; assay: NCI-60 screen, Breast Cancer HS 578T; type: cell-based, human
[20] = system: T-47D; assay: NCI-60 screen, Breast Cancer T-47D; type: cell-based
[21] = system: M14; assay: cells; details: Homo sapiens
[22] = Homo sapiens, five doses 10^−4–10^−8 M
[23] = Homo sapiens, five doses 10^−4–10^−8 M, read-out: log LC50 (the source's name) (converted)
[24] = Homo sapiens, NCI-H522, five doses 10^−4–10^−8 M
[25] = Homo sapiens, COLO-205, five doses 10^−4–10^−8 M
[26] = Homo sapiens, HCC-2998, five doses 10^−4–10^−8 M
[27] = Homo sapiens, SW-620, SW620, five doses 10^−4–10^−8 M

FC(F)(F)c1nc(Cl)c2sc(=S)n(-c3ccccc3)c2n1 [Compound 3b, 7-chloro-3-phenyl-5-(trifluoromethyl)[1, 3]thiazolo[4,5-d]pyrimidine-2(3H)-thione]
IC50 [1]: 49 ± 1 µM
IC50 [2]: 75.5 ± 1.6 µM
viability at 72 h, 50 µM [3]: 20%
IC50 [4]: 33.5 ± 0.7 µM
GI50 ([5]; Homo sapiens, RPMI-8226, five doses 10^−4–10^−8 M): 2.51 µM
CC50 ([5]; Homo sapiens, RPMI-8226, five doses 10^−4–10^−8 M, read-out: log LC50 (the source's name) (converted)): > 100 µM
Growth of Cells (%) ([5]; RPMI-8226, 10^−5 M one dose): 44.45%
log TGI ([5]; RPMI-8226, five doses 10^−4–10^−8 M): −5.11 log M
GI50 ([6]; Homo sapiens, NCI-H23, five doses 10^−4–10^−8 M): 3.09 µM
CC50 ([6]; Homo sapiens, NCI-H23, five doses 10^−4–10^−8 M, read-out: log LC50 (the source's name) (converted)): 93.3 µM
Growth of Cells (%) ([6]; NCI-H23, 10^−5 M one dose): 99.73%
log TGI ([6]; NCI-H23, five doses 10^−4–10^−8 M): −4.95 log M
Growth of Cells (%) ([7]; 10^−5 M one dose): 101.54%
GI50 [7, 22]: 3.8 µM
CC50 [7, 23]: 38 µM
log TGI ([7]; five doses 10^−4–10^−8 M): −4.90 log M
GI50 [8, 24]: 0.204 µM
LC50 [8, 24]: 1.51 µM
Growth of Cells (%) ([8]; NCI-H522, 10^−5 M one dose): −67.57%
log TGI ([8]; NCI-H522, five doses 10^−4–10^−8 M): −6.33 log M
Growth of Cells (%) ([9]; COLO-205, 10^−5 M one dose): 30.63%
log TGI ([9]; COLO-205, five doses 10^−4–10^−8 M): −5.44 log M
GI50 [9, 25]: 1.95 µM
LC50 [9, 25]: 6.61 µM
Growth of Cells (%) ([10]; HCC-2998, 10^−5 M one dose): −26.98% and −26.89%
log TGI ([10]; HCC-2998, five doses 10^−4–10^−8 M): −5.31 log M
GI50 [10, 26]: 2.24 µM
LC50 [10, 26]: 12.9 µM
Growth of Cells (%) ([11]; HT29, 10^−5 M one dose): −71.75%
log TGI ([11]; HT29, five doses 10^−4–10^−8 M): −5.40 log M
GI50 ([11]; Homo sapiens, HT-29, HT29, five doses 10^−4–10^−8 M): 1.91 µM
GI50 [12, 27]: 2.14 µM
LC50 (50% lethal concentration) [12, 27]: 21.4 µM
Growth of Cells (%) ([12]; SW620, 10^−5 M one dose): −63.05%
log TGI ([12]; SW620, five doses 10^−4–10^−8 M): −5.32 log M
GI50 ([13]; Homo sapiens): 12.3 µM
LC50 ([13]; Homo sapiens): 52.5 µM
log TGI [13]: −4.59 log M
GI50 ([14]; Homo sapiens): 2 µM
LC50 ([14]; Homo sapiens): 8.91 µM
log TGI [14]: −5.38 log M
GI50 ([15]; Homo sapiens, OVCAR-3, five doses 10^−4–10^−8 M): 1.91 µM
CC50 ([15]; Homo sapiens, OVCAR-3, five doses 10^−4–10^−8 M, read-out: log LC50 (the source's name) (converted)): 6.03 µM
Growth of Cells (%) ([15]; OVCAR-3, 10^−5 M one dose): −41.27%
log TGI ([15]; OVCAR-3, five doses 10^−4–10^−8 M): −5.47 log M
GI50 ([16]; Homo sapiens, OVCAR-8, five doses 10^−4–10^−8 M): 1.95 µM
CC50 ([16]; Homo sapiens, OVCAR-8, five doses 10^−4–10^−8 M, read-out: log LC50 (the source's name) (converted)): > 100 µM
Growth of Cells (%) ([16]; OVCAR-8, 10^−5 M one dose): 4.40%
log TGI ([16]; OVCAR-8, five doses 10^−4–10^−8 M): −5.27 log M
Growth of Cells (%) ([17]; 10^−5 M one dose): 109.92%
GI50 [17, 22]: 3.31 µM
CC50 [17, 23]: > 100 µM
log TGI ([17]; five doses 10^−4–10^−8 M): −4.96 log M
GI50 ([18]; Homo sapiens, RXF 393, five doses 10^−4–10^−8 M): 1.82 µM
CC50 ([18]; Homo sapiens, RXF 393, five doses 10^−4–10^−8 M, read-out: log LC50 (the source's name) (converted)): 6.17 µM
Growth of Cells (%) ([18]; RXF 393, 10^−5 M one dose): −16.27%
log TGI ([18]; RXF 393, five doses 10^−4–10^−8 M): −5.47 log M
Growth of Cells (%) ([19]; 10^−5 M one dose): 21.84%
GI50 [19, 22]: 2.82 µM
CC50 [19, 23]: > 100 µM
log TGI ([19]; five doses 10^−4–10^−8 M): −5.07 log M
GI50 ([20]; Homo sapiens, T47D, read-out: log GI50 (converted)): 1.86 µM
CC50 ([20]; Homo sapiens, T47D, T-47D, five doses 10^−4–10^−8 M, read-out: log LC50 (the source's name) (converted)): 66.1 µM
Growth of Cells (%) ([20]; T-47D, 10^−5 M one dose): −35.57%
log TGI ([20]; T-47D, five doses 10^−4–10^−8 M): −5.32 log M
GI50 ([21]; M14, read-out: log GI50 (converted)): 2 µM
CC50 ([21]; M14, read-out: log LC50 (converted)): 8.32 µM

Source: article PMC8778818, “Synthesis, Structural Characterization and Anticancer Activity of New 5-Trifluoromethyl-2-thioxo-thiazolo[4,5-d]pyrimidine Derivatives” (Pharmaceuticals, 2022)
